Experiments:
[1] = biological target: T1, Steroid 17-alpha-hydroxylase/17,20 lyase (Homo sapiens, UniProt P05093); assay: Inhibition of CYP17 in human testicular microsomes using 17alpha-hydroxypregnenolone as substrate assessed as decrease in DHEA levels after 90 mins by ELISA; parameters: species or system Testis
T1 sequence (P05093 whole entry): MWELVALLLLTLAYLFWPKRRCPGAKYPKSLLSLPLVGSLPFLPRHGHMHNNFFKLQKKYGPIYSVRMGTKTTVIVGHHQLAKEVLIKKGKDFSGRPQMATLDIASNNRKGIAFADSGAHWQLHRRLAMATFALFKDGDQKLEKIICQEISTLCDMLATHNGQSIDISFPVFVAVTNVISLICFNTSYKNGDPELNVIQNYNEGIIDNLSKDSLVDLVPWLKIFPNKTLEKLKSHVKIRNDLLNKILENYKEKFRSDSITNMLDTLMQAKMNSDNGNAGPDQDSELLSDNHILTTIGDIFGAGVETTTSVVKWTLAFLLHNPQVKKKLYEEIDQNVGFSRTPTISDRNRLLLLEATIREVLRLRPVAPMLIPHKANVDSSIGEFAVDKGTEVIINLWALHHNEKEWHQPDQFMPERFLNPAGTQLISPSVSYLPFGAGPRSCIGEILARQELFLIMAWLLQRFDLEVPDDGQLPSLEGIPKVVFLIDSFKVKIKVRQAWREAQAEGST

[2] = biological target: T1, Steroid 17-alpha-hydroxylase/17,20 lyase; assay: Inhibition of CYP17 in human testicular microsomes using 17alpha-hydroxypregnenolone as substrate assessed as decrease in DHEA levels at 10 nM after 90 mins by ELISA relative to control; parameters: species or system Testis; settings: 1.5 h
[3] = Half life in human liver microsomes at 1 uM by LC-MS/MS analysis
[4] = biological target: T2, CYP21 (steroid 21-hydroxylase) (Homo sapiens, UniProt P08686); assay: Inhibition of human CYP21 transfected in HEK293 cells assessed as decrease in conversion of progesterone to 11-deoxycorticosterone at 100 nM preincubated for 5 hrs followed by progesterone addition measured after 20 hrs by ELISA relative to control; type: cell-based; settings: HEK293 cells transfected with human CYP21, probe progesterone
T2 sequence (P08686 whole entry): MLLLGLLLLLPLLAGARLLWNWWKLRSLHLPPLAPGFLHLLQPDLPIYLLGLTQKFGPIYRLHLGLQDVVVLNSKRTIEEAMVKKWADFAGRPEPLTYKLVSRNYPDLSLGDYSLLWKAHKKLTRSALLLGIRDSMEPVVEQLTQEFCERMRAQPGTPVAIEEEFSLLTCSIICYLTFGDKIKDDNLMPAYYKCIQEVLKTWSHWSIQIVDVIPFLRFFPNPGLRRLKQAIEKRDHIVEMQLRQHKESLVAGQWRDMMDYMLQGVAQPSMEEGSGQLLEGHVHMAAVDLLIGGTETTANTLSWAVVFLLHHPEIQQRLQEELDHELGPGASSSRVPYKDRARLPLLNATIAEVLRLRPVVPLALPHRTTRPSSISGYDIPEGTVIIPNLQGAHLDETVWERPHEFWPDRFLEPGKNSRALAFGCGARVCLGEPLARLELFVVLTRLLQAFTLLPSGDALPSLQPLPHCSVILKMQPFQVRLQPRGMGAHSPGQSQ

[5] = biological target: T2, CYP21 (steroid 21-hydroxylase); assay: Inhibition of human CYP21 transfected in HEK293 cells assessed as decrease in conversion of progesterone to 11-deoxycorticosterone preincubated for 5 hrs followed by progesterone addition measured after 20 hrs by ELISA; type: cell-based; parameters: concentration or dose not given beside the values; settings: HEK293 cells transfected with human CYP21, probe progesterone
[6] = Half life in rat liver microsomes at 1 uM by LC-MS/MS analysis
[7] = biological target: T1, Steroid 17-alpha-hydroxylase/17,20 lyase; assay: Inhibition of CYP17 in human H295R cells assessed as decrease in testosterone levels after 24 hrs by ELISA; type: cell-based
CYP11B = biological target: T3, CYP11B (Rattus norvegicus, UniProt P15393+P30099); assay: Inhibition of Sprague-Dawley rat adrenal mitochondrial CYP11B assessed as decrease in conversion of 11-deoxycortisol to cortisol at 100 nM incubated for 60 mins by ELISA relative to control; type: protein assay; settings: adrenal mitochondria, probe 11-deoxycortisol
T3 sequence (P30099 whole entry): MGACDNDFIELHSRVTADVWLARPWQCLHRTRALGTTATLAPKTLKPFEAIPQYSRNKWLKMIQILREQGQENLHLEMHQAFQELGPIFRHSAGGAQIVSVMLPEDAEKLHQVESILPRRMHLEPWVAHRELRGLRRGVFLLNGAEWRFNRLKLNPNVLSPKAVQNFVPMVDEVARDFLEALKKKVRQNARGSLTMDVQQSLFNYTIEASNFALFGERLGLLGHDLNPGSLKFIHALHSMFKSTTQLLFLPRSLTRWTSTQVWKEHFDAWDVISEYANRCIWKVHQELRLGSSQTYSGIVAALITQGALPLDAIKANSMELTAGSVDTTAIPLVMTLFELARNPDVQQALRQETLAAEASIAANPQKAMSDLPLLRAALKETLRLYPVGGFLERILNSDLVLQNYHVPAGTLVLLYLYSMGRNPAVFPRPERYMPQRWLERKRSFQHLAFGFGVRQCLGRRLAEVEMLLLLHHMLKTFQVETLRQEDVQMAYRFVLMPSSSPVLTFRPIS
T3 sequence (P15393 whole entry): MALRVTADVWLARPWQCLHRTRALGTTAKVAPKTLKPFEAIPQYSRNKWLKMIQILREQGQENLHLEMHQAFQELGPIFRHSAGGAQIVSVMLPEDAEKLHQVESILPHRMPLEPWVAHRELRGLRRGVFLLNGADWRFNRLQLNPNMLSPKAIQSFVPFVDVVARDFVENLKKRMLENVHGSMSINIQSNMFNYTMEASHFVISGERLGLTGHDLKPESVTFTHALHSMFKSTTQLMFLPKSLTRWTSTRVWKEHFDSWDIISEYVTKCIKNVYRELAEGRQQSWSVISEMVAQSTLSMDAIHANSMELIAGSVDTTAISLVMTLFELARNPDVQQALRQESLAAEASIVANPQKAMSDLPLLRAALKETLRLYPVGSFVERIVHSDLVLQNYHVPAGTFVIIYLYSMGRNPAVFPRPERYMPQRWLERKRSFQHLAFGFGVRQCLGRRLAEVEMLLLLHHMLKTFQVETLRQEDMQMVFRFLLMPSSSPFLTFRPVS

[8] = biological target: T1, Steroid 17-alpha-hydroxylase/17,20 lyase; assay: Inhibition of CYP17 in human testicular microsomes using 17alpha-hydroxypregnenolone as substrate assessed as decrease in DHEA levels at 1 nM after 90 mins by ELISA relative to control; parameters: species or system Testis

Row | SMILES | IC50 [1] | inhibition at 0.01 µM [2] | half-life at 1 µM [3] | inhibition at 20 h, 0.1 µM [4] | inhibition at 20 h [5] | half-life at 1 µM [6] | IC50 [7] | inhibition at 1 h, 0.1 µM (CYP11B) | IC50 [8]
1 | COc1cncc(C2=CC=C3[C@@H]4CCC5=CC(=O)CC[C@]5(C)[C@H]4CC[C@]23C)c1 |  | 50 to 80% | 1 to 50 min | ≥ 30% |  |  |  |  | 
2 | COc1cncc(C2=CC=C3[C@@H]4CCC5=CC(=O)NCC[C@]5(C)[C@H]4CC[C@]23C)c1 | ≤ 11 nM | 50 to 80% |  | ≥ 30% |  |  |  |  | 
3 | C[C@]12CCCC(=O)CC1=CC[C@@H]1[C@@H]2CC[C@]2(C)C(c3cnccn3)=CC[C@@H]12 |  | ≥ 80% | 1 to 50 min | ≥ 30% |  |  |  |  | 
4 | C[C@]12CCNC(=O)C=C1CC[C@@H]1[C@@H]2CC[C@]2(C)C(c3cccnc3)=CC[C@@H]12 | ≤ 11 nM | ≥ 80% | 1 to 10 min | < 30% |  | 1 to 10 min |  |  | 
5 | CC(=O)N[C@@H]1CC[C@@]2(C)C(=CC[C@@H]3[C@@H]2CC[C@]2(C)C(n4ccnc4)=CC[C@@H]32)C1 | ≤ 11 nM |  | ≥ 50 min |  | ≥ 50% |  | ≤ 15 nM | ≥ 50% | 
6 | CCc1cncc(C2=CC[C@H]3[C@@H]4CCC5=CC(=O)N(C)CC[C@]5(C)[C@H]4CC[C@]23C)c1 |  | 50 to 80% |  | ≥ 30% |  |  |  |  | 
7 | C[C@]12CC[C@H]3[C@@H](CC[C@H]4CC(=O)NCC[C@@]43C)C1=CC=C2n1ccnc1 | ≤ 11 nM | ≥ 80% | 1 to 50 min | ≥ 30% |  |  |  |  | 
8 | C[C@]12CCNC(=O)C=C1CC[C@@H]1[C@@H]2CC[C@]2(C)C(c3cncnc3)=CC[C@@H]12 |  | 50 to 80% | 1 to 10 min | ≥ 30% |  | 1 to 10 min |  |  | 
9 | C[C@]12CC[C@H]3[C@@H](CCC4=C/C(=N/O)CC[C@@]43C)C1=CC=C2c1cccnc1 | ≤ 11 nM |  | 1 to 50 min | < 30% | ≥ 50% |  |  |  | 
10 | CC1C[C@H]2C3=CC=C(c4cncc(N)c4)[C@@]3(C)CC[C@@H]2[C@@]2(C)CCC(=O)C=C12 (stereo partly drawn) | ≤ 11 nM |  |  | < 30% |  |  |  |  | 
11 | Cc1ccncc1C1=CCC2[C@@H]3CN(C)C4=CC(=O)CC[C@]4(C)[C@H]3CC[C@]12C (single isomer, unassigned) |  |  |  |  | 10 to 50% |  | ≤ 15 nM | ≥ 50% | 

More lines, now with the values ahead:

Row | IC50 [1] | inhibition at 0.01 µM [2] | half-life at 1 µM [3] | inhibition at 20 h, 0.1 µM [4] | inhibition at 20 h [5] | half-life at 1 µM [6] | IC50 [7] | inhibition at 1 h, 0.1 µM (CYP11B) | IC50 [8] | SMILES
12 | ≤ 11 nM | ≥ 80% | 1 to 50 min | ≥ 30% |  |  |  |  |  | C[C@]12CCCC(=O)CC1=CC[C@@H]1[C@@H]2CC[C@]2(C)C(n3ccnc3)=CC[C@@H]12
13 | ≤ 11 nM | ≥ 80% |  | ≥ 30% | 10 to 50% |  |  |  |  | CN1CC[C@@]2(C)C(=CC1=O)CC[C@H]1C3=CC=C(c4cnccn4)[C@@]3(C)CC[C@@H]12
14 |  | ≥ 80% | ≥ 50 min | < 30% |  | 1 to 10 min |  |  |  | C[C@]12CCNC(=O)C=C1CC[C@@H]1[C@@H]2CC[C@]2(C)C(n3ccnn3)=CC[C@@H]12
15 | ≤ 11 nM | 50 to 80% |  | < 30% |  |  |  |  |  | CCCOc1cncc(C2=CC[C@H]3[C@@H]4CCC5=CC(=O)NCC[C@]5(C)[C@H]4CC[C@]23C)c1
16 | ≤ 11 nM | ≥ 80% | 10 to 60 min | < 30% |  | 10 to 60 min |  |  |  | CCc1cncc(C2=CC[C@H]3[C@@H]4CCC5=CC(=O)NCC[C@]5(C)[C@H]4CC[C@]23C)c1
17 | ≤ 11 nM | ≥ 80% | 1 to 50 min | < 30% |  | 1 to 10 min |  |  |  | C[C@]12CC[C@H]3[C@@H](CC[C@H]4CC(=O)NCC[C@@]43C)C1=CC=C2c1cccnc1
18 |  |  |  |  | 10 to 50% |  | ≤ 15 nM | < 32% |  | Cc1ccncc1C1=CC[C@H]2[C@@H]3CC[C@H]4CC(=O)NCC[C@]4(C)[C@H]3CC[C@]12C
19 | ≤ 11 nM | 50 to 80% | 10 to 60 min | ≥ 30% |  | 10 to 60 min |  |  |  | Cc1cncc(C2=CC[C@H]3[C@@H]4CCC5=CC(=O)NCC[C@]5(C)[C@H]4CC[C@]23C)c1
20 |  |  |  |  | 10 to 50% |  |  | ≥ 50% | > 100 nM | COC(=O)N1CCC[C@@]2(C)[C@@H](CC[C@@H]3[C@@H]2CC[C@]2(C)C(n4ccnc4)=CC[C@@H]32)C1
21 | ≤ 11 nM | ≥ 80% | ≥ 50 min | < 30% |  | 10 to 60 min |  |  |  | C[C@]12CC[C@H]3[C@@H](CCC4=CC(=O)NCC[C@@]43C)C1=CC=C2n1ccnc1
22 |  | 50 to 80% |  | < 30% |  |  |  |  |  | Cc1cncc(C2=CC=C3[C@@H]4CCC5=CC(=O)N(C)CC[C@]5(C)[C@H]4CC[C@]23C)c1
23 |  | ≥ 80% | 1 to 10 min | ≥ 30% |  | 1 to 10 min |  |  |  | C[C@]12CCNC(=O)C=C1CC[C@@H]1[C@@H]2CC[C@]2(C)C(c3cnccn3)=CC[C@@H]12
24 | ≤ 11 nM | 50 to 80% |  | < 30% |  |  |  |  |  | C[C@]12CC[C@H]3[C@@H](CCN4C(=O)CCCC[C@]34C)[C@@H]1CC=C2c1cccnc1
25 | ≤ 11 nM | ≥ 80% | 1 to 50 min | ≥ 30% |  |  |  |  |  | COc1cncc(C2=CC=C3[C@@H]4CCC5=CC(=O)N(C)CC[C@]5(C)[C@H]4CC[C@]23C)c1
26 | ≤ 11 nM | ≥ 80% | 1 to 50 min |  | ≥ 50% |  | ≤ 15 nM | < 32% |  | C[C@]12CC[C@H](O)CC1=CC[C@@H]1[C@@H]2CC[C@]2(C)C(c3cccnc3)=CC[C@@H]12 [ABIRATERONE]

Reference: ChEMBL document CHEMBL3882724 (2013)
